Results taken from ChEMBL document CHEMBL1201862, “PubChem BioAssay data set” (2004).
Calls of active or inactive are those of the source.

Assays:
[1] = target: Voltage-dependent T-type calcium channel subunit alpha-1H (Homo sapiens, UniProt O95180); format: functional;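 further: channel activity triggered by adding a high calcium stimulation buffer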
[2] = target: T1, Aminopeptidase N (Plasmodium falciparum FcB1/Columbia, UniProt O96935); assay: P. falciparum M1AAP inhibitors, biochemical, fluorogenic H-Leu-NHMec substrate, 1536-well (AID 1445); set-up: species or system Plasmodium falciparum 3D7, 3D7
T1 sequence (O96935 whole entry): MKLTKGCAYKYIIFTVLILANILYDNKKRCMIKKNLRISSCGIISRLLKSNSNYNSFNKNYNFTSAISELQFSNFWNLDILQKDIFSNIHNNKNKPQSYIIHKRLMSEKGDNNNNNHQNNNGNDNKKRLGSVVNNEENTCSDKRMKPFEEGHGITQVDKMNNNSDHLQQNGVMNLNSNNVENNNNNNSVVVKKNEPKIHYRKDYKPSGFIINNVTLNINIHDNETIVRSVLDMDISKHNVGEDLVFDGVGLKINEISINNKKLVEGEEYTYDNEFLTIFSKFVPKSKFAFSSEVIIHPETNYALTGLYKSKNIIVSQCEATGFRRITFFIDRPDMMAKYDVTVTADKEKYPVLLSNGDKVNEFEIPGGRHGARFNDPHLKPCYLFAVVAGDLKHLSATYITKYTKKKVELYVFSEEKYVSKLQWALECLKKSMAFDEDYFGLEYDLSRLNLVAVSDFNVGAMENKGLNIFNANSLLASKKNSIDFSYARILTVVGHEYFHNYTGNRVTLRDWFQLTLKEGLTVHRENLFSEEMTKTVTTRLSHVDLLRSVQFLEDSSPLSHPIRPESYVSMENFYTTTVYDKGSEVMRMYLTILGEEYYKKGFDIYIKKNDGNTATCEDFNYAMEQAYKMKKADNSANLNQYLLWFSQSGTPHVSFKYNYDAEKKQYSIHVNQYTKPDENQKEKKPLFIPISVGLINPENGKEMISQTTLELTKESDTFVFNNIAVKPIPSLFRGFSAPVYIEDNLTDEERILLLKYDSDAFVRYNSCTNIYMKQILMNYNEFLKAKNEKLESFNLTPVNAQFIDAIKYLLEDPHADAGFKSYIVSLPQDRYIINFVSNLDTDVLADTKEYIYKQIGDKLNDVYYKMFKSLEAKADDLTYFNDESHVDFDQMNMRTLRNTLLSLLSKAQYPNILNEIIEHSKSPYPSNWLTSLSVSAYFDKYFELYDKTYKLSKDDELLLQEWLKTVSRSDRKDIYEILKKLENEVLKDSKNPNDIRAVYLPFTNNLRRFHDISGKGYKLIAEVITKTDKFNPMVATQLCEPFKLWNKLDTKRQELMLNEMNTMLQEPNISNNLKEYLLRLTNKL

[3] = target: Transitional endoplasmic reticulum ATPase (Homo sapiens, UniProt P55072, C522A); assay: C522A mutant p97 ATPase inhibitors, dose response, counter-screen for p97 inhibitor project, biochemical, luminescence (AID 1544)
[4] = target: Transitional endoplasmic reticulum ATPase (Homo sapiens, UniProt P55072); assay: p97 ATPase inhibitors, dose response, biochemical (AID 1534)
[5] = target: T2, Corticotropin-releasing factor receptor 2/Corticotropin-releasing factor-binding protein (Homo sapiens, UniProt P24387+Q13324); assay: Dose Response confirmation of uHTS hits for small molecule antagonists of the CRF-binding protein and CRF-R2 receptor complex.; format: functional; conditions: read-out: IC50_Mean
T2 sequence (Q13324 whole entry): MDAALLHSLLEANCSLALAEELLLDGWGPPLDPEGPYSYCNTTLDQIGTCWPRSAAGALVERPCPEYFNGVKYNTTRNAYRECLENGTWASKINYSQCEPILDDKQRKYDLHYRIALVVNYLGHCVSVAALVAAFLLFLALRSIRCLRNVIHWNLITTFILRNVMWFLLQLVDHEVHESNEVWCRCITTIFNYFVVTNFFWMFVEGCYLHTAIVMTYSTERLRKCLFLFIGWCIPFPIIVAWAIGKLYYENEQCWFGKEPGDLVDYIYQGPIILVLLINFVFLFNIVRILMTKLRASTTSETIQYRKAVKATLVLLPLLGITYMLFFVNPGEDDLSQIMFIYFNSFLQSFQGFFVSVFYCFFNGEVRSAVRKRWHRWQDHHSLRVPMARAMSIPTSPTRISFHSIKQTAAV
T2 sequence (P24387 whole entry): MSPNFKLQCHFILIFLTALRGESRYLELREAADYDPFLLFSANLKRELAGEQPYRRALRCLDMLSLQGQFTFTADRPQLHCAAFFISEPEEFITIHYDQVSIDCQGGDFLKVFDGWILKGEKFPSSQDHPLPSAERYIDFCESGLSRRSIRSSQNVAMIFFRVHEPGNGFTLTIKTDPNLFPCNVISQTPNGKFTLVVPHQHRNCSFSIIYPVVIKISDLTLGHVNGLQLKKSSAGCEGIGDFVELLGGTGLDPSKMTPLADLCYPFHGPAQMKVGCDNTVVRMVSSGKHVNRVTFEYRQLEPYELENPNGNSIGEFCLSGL

[6] = target: T2, Corticotropin-releasing factor receptor 2/Corticotropin-releasing factor-binding protein; assay: activators of CRF receptor 2 with binding protein – uHTS hits, confirmation (AID 602473); format: functional; conditions: read-out: EC50_Mean
[7] = CRF-BP/CRF-R2 complex antagonists, dose response, cell-based, uHTS hits, 384-well (AID 651639); format: functional, Homo sapiens; conditions: read-out: IC50_Mean
[8] = target: T3, Long-chain-fatty-acid--AMP ligase FadD28 (Mycobacterium tuberculosis, UniProt P9WQ59); assay: Fluorescence polarization aasay to screen for inhibitors that compete for the binding of FadD28 to a bisubstrate Measured in Biochemical System Using Plate Reader - 2147-01_Inhibitor_Dose_CherryPick_Activity.; format: functional, Mycobacterium tuberculosis H37Rv
T3 sequence (P9WQ59 whole entry): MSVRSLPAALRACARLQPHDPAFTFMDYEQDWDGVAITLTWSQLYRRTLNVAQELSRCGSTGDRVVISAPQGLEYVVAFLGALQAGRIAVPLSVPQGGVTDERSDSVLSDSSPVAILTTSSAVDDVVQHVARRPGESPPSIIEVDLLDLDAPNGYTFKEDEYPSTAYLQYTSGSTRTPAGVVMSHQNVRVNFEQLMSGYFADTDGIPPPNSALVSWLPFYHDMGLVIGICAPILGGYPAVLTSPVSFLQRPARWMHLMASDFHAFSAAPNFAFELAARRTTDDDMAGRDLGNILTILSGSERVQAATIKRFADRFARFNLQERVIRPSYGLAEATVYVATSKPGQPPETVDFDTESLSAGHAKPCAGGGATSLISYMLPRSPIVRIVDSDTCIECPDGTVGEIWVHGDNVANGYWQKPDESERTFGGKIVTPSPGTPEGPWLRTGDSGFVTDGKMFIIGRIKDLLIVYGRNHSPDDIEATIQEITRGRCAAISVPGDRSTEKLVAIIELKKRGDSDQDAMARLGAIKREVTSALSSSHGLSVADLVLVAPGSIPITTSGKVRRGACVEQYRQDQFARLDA

[9] = target: Cytochrome P450 2C9 (Homo sapiens, UniProt P11712); conditions: Potency
[10] = target: T4, RNA-binding protein pos-1 (Caenorhabditis elegans, UniProt G5EF15); assay: inhibitors of POS-1/mex-3 RNA binding, dose response, biochemical, fluorescence polarization (AID 1964);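 further: purified POS-1 fused to maltose binding protein made in E. coli; potency of compounds blocking POS-1 binding to fluorescent RNA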
T4 sequence (G5EF15 whole entry): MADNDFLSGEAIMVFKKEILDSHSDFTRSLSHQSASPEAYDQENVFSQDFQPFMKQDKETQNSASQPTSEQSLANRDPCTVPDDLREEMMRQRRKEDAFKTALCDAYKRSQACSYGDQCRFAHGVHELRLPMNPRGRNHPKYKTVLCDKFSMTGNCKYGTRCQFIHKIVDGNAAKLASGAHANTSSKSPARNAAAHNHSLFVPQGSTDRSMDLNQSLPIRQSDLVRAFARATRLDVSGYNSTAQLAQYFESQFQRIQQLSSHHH

[11] = target: T5, Zinc finger protein mex-5 (Caenorhabditis elegans, UniProt Q9XUB2); assay: MEX-5/TCR-2 RNA interaction inhibitors, dose response, biochemical, C. elegans, fluorescence polarization (AID 1960)
T5 sequence (Q9XUB2 whole entry): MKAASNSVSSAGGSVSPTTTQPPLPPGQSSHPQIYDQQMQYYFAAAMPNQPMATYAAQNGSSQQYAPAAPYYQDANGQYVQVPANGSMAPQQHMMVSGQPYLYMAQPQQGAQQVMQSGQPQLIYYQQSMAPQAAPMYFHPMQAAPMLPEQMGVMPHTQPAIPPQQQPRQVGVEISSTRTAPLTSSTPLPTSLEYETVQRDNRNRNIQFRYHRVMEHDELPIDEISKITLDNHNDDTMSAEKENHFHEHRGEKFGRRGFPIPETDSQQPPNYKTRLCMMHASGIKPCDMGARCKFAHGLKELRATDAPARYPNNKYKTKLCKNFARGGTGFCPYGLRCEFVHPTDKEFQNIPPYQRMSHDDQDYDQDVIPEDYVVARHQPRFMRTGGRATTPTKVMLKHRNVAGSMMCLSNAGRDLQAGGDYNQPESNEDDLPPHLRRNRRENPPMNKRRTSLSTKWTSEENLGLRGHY

[12] = target: T6, Bifunctional protein GlmU (Mycobacterium tuberculosis, UniProt P9WMN3); assay: Inhibitors of Mycobacterial Glucosamine-1-phosphate acetyl transferase (GlmU). Secondary screen.; set-up: species or system Mycobacterium tuberculosis H37Rv
T6 sequence (P9WMN3 whole entry): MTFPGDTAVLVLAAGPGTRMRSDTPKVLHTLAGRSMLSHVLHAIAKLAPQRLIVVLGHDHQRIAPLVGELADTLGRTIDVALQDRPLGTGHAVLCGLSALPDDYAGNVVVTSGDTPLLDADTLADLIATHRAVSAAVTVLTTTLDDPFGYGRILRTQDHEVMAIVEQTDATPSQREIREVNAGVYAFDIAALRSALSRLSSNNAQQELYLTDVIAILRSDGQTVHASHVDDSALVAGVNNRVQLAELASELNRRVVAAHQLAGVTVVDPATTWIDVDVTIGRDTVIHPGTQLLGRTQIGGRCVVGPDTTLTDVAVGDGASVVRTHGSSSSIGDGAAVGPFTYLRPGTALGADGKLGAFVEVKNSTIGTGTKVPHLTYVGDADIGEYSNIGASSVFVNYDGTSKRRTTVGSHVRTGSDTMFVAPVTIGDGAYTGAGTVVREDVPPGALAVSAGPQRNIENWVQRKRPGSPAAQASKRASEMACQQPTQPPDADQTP

[13] = target: Induced myeloid leukemia cell differentiation protein Mcl-1 (Homo sapiens, UniProt Q07820); format: functional
[14] = target: 26S proteasome non-ATPase regulatory subunit 14 (Homo sapiens, UniProt O00487); assay: inhibition of proteasome subunit RPN11 – biochemical, fluorescence polarization, uHTS hits, confirmation (AID 602368); format: functional
[15] = target: 72 kDa type IV collagenase (Homo sapiens, UniProt P08253); assay: Dose Response validation of uHTS RPN11 inhibitor hits using a MMP-2 Fluorescence assay.; format: functional
[16] = target: Prothrombin (Bos taurus, UniProt P00735); assay: thrombin inhibition, dose response, biochemical, fluorescence polarization, uHTS hits (AID 602369); format: functional
[17] = target: T7, Small ubiquitin-related modifier 1 (Homo sapiens, UniProt P63165); assay: inhibitors of SUMO1 peptide binding, dose response, biochemical, fluorescence polarization, uHTS hits (AID 624382); format: functional; conditions: read-out: IC50_Mean
[18] = target: T7, Small ubiquitin-related modifier 1; assay: inhibitors of SUMO1 partner interactions, dose response, biochemical, FRET (AID 624383); format: functional; conditions: read-out: IC50_Mean
[19] = target: Albumin (Bos taurus, UniProt P02769); assay: Counterscreen for inhibitors of T-cell receptor (TCR)-CD3 interaction: Fluorescence-based biochemical high throughput dose response assay to identify inhibitors of T-cell receptor (TCR)-CD3 interaction using a TAMRA-labeled BSA probe.; format: functional
[20] = target: T8, RNA-editing ligase 1, mitochondrial (Trypanosoma brucei brucei, UniProt P86926); assay: TbREL1 ligase inhibitors, dose response, biochemical, fluorescence, Trypanosoma brucei (AID 1117295); format: functional
T8 sequence (P86926 whole entry): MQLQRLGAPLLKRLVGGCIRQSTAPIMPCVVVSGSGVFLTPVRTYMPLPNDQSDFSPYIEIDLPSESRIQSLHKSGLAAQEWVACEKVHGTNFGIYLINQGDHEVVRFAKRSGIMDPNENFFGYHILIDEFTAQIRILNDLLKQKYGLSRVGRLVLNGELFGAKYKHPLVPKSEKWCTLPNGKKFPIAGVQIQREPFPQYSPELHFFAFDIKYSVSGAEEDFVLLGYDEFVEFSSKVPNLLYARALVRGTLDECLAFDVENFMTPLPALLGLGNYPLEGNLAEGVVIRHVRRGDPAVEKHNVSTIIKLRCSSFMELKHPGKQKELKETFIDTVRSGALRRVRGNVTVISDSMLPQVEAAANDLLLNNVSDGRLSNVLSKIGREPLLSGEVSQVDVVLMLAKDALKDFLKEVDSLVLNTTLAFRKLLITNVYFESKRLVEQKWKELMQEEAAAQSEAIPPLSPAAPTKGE

Chain of Voltage-dependent T-type calcium channel subunit alpha-1H (O95180 whole entry): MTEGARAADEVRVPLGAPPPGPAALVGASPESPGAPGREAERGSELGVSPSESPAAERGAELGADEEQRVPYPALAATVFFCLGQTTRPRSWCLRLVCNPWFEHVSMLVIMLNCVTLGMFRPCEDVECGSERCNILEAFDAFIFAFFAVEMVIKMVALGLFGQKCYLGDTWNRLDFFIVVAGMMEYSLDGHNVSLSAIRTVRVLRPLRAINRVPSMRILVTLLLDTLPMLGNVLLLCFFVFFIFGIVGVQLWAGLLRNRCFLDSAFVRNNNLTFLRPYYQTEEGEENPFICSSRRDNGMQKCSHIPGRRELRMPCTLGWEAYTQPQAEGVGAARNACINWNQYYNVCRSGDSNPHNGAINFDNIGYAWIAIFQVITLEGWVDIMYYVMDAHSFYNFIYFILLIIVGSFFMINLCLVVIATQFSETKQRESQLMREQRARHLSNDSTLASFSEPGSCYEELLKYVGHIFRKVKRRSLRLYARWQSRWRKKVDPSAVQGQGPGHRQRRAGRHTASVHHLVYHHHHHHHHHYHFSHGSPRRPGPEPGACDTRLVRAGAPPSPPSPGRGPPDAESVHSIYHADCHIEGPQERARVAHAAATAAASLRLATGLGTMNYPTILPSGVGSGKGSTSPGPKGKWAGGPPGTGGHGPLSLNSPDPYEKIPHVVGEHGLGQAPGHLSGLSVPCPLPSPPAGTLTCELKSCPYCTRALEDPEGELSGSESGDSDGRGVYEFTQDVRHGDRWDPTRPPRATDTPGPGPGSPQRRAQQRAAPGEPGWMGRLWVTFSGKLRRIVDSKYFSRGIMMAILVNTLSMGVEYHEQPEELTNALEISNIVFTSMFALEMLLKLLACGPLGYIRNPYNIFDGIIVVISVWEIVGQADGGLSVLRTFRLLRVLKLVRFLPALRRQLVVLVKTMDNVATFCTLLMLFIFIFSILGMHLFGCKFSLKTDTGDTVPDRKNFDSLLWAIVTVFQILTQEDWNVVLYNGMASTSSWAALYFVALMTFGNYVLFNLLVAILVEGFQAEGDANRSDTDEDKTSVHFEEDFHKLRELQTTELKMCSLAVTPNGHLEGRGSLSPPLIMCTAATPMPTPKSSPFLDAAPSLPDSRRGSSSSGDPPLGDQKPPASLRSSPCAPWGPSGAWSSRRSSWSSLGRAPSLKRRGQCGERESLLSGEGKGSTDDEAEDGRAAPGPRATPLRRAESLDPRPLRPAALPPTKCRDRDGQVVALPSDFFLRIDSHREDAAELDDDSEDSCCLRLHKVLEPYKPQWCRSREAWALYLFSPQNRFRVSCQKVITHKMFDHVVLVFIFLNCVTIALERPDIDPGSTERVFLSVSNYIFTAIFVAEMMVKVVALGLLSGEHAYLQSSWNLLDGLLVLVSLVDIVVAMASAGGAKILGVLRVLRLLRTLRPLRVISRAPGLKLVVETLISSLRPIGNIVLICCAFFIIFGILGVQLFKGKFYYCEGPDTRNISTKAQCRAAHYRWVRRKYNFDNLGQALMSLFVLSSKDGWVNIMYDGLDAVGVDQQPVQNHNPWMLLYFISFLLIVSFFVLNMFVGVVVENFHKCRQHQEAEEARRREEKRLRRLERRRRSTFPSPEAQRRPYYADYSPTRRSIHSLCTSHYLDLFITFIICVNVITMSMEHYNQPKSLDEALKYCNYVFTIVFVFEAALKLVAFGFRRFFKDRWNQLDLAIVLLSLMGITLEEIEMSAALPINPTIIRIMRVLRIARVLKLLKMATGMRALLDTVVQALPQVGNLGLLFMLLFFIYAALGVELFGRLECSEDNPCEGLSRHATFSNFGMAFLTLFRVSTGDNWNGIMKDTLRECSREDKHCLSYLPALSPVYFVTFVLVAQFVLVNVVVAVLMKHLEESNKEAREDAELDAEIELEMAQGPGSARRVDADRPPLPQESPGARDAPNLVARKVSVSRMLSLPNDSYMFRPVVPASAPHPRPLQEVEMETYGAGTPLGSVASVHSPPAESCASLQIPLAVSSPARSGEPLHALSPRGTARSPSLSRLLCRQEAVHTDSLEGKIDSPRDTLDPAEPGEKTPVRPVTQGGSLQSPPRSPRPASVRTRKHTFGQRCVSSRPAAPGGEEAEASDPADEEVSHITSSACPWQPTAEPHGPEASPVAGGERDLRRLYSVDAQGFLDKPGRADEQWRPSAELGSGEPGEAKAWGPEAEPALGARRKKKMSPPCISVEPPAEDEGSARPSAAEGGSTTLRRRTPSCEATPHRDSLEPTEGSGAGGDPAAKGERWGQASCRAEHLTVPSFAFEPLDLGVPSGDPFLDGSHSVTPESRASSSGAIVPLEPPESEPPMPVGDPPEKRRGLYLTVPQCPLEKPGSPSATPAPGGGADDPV
T7 sequence (P63165 whole entry): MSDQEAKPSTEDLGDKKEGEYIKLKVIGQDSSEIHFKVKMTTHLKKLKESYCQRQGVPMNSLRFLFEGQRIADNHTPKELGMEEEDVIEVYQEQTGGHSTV
Chain of Transitional endoplasmic reticulum ATPase (Homo sapiens, UniProt P55072) (P55072 whole entry): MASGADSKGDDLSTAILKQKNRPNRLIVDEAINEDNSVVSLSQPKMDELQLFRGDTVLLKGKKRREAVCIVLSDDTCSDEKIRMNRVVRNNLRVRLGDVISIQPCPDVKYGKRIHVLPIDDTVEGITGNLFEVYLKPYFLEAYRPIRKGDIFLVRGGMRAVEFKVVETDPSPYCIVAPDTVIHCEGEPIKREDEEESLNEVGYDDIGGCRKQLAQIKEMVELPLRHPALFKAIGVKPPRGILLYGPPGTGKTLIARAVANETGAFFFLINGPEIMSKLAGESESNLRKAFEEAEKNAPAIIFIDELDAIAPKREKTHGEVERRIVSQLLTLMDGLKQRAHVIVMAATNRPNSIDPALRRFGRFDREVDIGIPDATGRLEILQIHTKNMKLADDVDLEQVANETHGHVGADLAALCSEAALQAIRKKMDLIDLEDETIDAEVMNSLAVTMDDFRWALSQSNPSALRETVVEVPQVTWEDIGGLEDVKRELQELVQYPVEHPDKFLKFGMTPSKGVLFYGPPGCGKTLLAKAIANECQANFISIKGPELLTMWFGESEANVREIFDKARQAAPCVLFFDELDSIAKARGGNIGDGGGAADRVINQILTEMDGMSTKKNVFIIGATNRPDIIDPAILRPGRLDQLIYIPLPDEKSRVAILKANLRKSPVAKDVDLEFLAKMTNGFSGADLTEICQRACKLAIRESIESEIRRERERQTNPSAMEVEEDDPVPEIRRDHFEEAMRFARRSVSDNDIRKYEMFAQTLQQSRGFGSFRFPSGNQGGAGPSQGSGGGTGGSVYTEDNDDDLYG
Chain of Transitional endoplasmic reticulum ATPase (Homo sapiens, UniProt P55072, C522A) (P55072 2-806 C522A limits assumed): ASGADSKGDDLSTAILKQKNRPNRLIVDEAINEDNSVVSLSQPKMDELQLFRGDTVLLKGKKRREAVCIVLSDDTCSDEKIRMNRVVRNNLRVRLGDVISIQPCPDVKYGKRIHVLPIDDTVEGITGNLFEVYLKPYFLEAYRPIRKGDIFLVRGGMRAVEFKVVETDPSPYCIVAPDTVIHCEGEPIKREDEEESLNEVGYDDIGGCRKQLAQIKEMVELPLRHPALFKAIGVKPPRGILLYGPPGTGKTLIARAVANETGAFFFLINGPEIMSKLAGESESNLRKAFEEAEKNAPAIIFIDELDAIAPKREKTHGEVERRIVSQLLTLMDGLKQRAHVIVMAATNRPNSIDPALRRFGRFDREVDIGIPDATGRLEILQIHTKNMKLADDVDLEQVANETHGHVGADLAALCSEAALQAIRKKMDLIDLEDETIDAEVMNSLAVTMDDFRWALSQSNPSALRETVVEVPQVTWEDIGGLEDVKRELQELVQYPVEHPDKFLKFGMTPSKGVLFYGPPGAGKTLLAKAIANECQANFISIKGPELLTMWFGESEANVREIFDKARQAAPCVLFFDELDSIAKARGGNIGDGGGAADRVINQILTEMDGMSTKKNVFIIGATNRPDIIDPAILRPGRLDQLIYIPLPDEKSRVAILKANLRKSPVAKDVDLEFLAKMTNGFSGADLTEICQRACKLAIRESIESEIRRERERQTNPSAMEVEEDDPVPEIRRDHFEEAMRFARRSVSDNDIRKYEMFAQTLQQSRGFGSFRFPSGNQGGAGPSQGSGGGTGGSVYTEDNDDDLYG
Chain of 72 kDa type IV collagenase (P08253 whole entry): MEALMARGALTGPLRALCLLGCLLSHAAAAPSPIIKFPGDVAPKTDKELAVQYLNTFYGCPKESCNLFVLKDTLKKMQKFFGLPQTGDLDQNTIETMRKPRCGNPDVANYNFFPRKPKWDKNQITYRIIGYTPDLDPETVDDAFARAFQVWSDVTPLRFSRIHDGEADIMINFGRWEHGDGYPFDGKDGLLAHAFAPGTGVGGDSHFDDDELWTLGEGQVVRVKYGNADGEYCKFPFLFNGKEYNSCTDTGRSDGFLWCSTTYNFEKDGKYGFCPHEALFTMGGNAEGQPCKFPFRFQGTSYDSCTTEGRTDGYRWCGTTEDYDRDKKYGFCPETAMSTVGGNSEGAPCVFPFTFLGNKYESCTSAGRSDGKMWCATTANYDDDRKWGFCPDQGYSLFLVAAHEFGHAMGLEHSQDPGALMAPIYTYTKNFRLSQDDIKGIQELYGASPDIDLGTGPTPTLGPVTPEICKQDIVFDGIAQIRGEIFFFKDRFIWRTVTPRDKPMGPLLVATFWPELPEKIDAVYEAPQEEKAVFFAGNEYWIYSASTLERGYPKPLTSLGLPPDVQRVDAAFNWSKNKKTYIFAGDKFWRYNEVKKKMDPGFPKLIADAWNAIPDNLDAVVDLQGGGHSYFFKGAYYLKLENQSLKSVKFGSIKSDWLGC
Chain of 26S proteasome non-ATPase regulatory subunit 14 (O00487 whole entry): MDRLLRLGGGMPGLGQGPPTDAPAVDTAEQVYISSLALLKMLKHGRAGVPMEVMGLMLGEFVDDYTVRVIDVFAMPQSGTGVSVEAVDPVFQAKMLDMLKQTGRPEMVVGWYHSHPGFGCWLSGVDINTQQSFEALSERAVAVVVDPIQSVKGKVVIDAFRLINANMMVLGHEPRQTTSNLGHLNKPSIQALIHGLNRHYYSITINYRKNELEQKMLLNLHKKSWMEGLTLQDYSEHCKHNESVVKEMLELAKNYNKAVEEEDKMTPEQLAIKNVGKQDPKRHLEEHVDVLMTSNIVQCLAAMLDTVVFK

CCCOc1cc(C)c(S(=O)(=O)n2ccc(C)n2)cc1C
EC50 [1]: 5.47 µM (active)

CCC(=O)N1CCN(c2ccccc2NC(=O)Cc2ccccc2)CC1
EC50 [1]: 12.9 µM (active)

Cc1[nH]c2ccccc2c1/C=C1/C(=N)N2C(=NC1=O)SN=C2S(=O)(=O)CC(C)C
IC50 [2]: 29.5 µM (active) | IC50 [3]: > 50 µM (not active) | IC50 [4]: 12.3 µM (not active) | IC50 [5]: 9.51 µM (active) | EC50 [6]: > 53 µM (inactive) | IC50 [7]: > 20 µM (inactive) | AC50 [8]: > 100 µM (inactive)

COc1ccc(-c2oc3cc(OC)c(OC(C)=O)c(OC)c3c(=O)c2OC)cc1OC(C)=O
AC50 [9]: 31.6 µM (inconclusive)

Cc1n[nH]c(S/C(=C\c2ccc(-c3ccc(C(=O)O)c(Cl)c3)o2)C(=O)O)n1
IC50 [2]: 11.3 µM (active) | EC50 [10]: 1.76 µM (active) | EC50 [11]: 1.38 µM (active) | IC50 [3]: > 50 µM (not active) | IC50 [12]: 61.9 µM (active) | IC50 [4]: > 50 µM (not active) | IC50 [13]: 2.35 µM (active) | IC50 [14]: 9.04 µM (active) | IC50 [15]: > 100 µM (inactive) | IC50 [16]: 9.79 µM (active) | IC50 [17]: > 66.6 µM (inactive) | IC50 [18]: 13.1 µM (active) | IC50 [19]: > 94.1 µM (inactive) | IC50 [20]: 22.9 µM (inactive)
